Data reported in EP4663206A1, “NEXT-GENERATION ADC LINKER PLATFORM TECHNOLOGY AND POLYSACCHARIDE CROSS-LINKED COLLOIDAL PARTICLE-DRUG CONJUGATE” (Inventera Inc., priority 2023, dated 2024).

Assays:
cancer cells = conditions: cited from earlier work
[1] = tested on: BT-474 human breast cancer xenograft model; experiment: In vivo antitumor efficacy in cancer xenograft mouse model (intratumoral injection, tumor volume); design: species or system Balb/c nude mice; conditions: alone; Doxorubicin 2 mg/kg; TLRA1 agonist 6 nmol/mL (0.3 nmol)
Experimental: The antitumor efficacy of the drug was assessed by monitoring changes in tumor volume following administration. Cdex@TLRA1 and Cdex@TLRB1 were administered in a cancer xenograft mouse model to evaluate antitumor immune responses and subsequent tumor cell death.
Balb/c nude mice (6 weeks old) were used to establish a BT-474 human breast cancer xenograft model for in vivo efficacy evaluation. Approximately 1 × 10^6 BT-474 breast cancer cells were mixed with Matrigel at a 1:1 volume ratio and subcutaneously implanted into the dorsal flank of each mouse in a volume of approximately 100 µL.
Once tumor volumes reached approximately 50 mm^3, Cdex@TLRA1 and Cdex@TLRB1 were directly injected into the tumor masses, and tumor growth was monitored over a 2-week period to evaluate drug efficacy. The test substances were administered on days 0, 4, 7, 12, and 15 (see FIG. 18a). To enhance antitumor effects, doxorubicin was administered to all groups except the negative control group on days 1 and 9. A separate "doxorubicin only" group was included for comparative purposes (see FIG. 18b and Table 6).

[2] = Shoulder MR arthrography image quality assessment, clinical comparative study NEMO-103 vs GBCA; format: in vivo, humans; conditions: supine position, over time
Experimental: FIGS. 25 and 26 illustrate the phase design and image quality assessment method of a clinical comparative study between NEMO-103, a dextran-crosslinked T1 MRI contrast agent, and Dotarem®, a representative clinical gadolinium-based contrast agent (GBCA) for T1 MRI. Phase I refers to MR arthrography (MRA) images acquired within 30 minutes after contrast agent administration. Phase II refers to MRA images acquired between 30 and 60 minutes post-administration, and Phase III refers to MRA images acquired between 110 and 130 minutes post-administration. In Comparison 1, no quantitative or qualitative differences were observed between NEMO-103-based MRA images acquired during Phase I and Phase II (FIG. 27). […] In Comparison 3, which compared NEMO-103-based MRA images from Phase II with GBCA-based MRA images, more prominent differences were observed (FIG. 29).
Amid growing safety concerns surrounding gadolinium-based contrast agents (GBCAs), iron (Fe)-based alternatives have emerged as a subject of active investigation. The present example evaluates the efficacy of NEMO-103 in comparison with a GBCA by assessing contrast-to-noise ratio (CNR) and MR arthrography (MRA) image quality. […] Both contrast agents effectively delineated key anatomical structures, including tissue contrast, sharpness, rotator cuff tendons, labral structures, and adjacent cartilage. […]

[3] = stated in discussion, according to current reports; cited from earlier work
[4] = Phantom study, 3T MRI scanner (relaxivity)
Experimental: The measured r1 and r2 relaxivity values of NEMO-103 were 2.0 mM^-1s^-1 and 2.3 mM^-1s^-1, respectively (FIGS. 24d and 24e). The r2/r1 ratio, which is an important parameter for T1 MRI contrast agents, was calculated to be 1.15. […] For comparison, the measured r1 and r2 values of Dotarem® were 4.7 mM^-1s^-1 and 5.2 mM^-1s^-1, respectively, resulting in an r2/r1 ratio of 1.11.

CC[C@@]1(O)C(=O)OCc2c1cc1n(c2=O)Cc2c-1nc1cc(F)c(C)c3c1c2[C@@H](N)CC3 [DXd, exatecan]
activity in cancer cells compared to SN-38 (cancer cells): approximately 10 fold

COc1cccc2c1C(=O)c1c(O)c3c(c(O)c1C2=O)C[C@@](O)(C(=O)CO)C[C@@H]3O[C@H]1C[C@H](N)[C@H](O)[C@H](C)O1 [Doxorubicin]
tumor growth rate [1]: reduction in tumor growth rate | tumor size [1]: no significant decrease in tumor size

CNC[C@H](O)[C@@H](O)[C@H](O)[C@H](O)CO.O=C([O-])CN1CCN(CC(=O)[O-])CCN(CC(=O)O)CCN(CC(=O)[O-])CC1.[Gd+3] [Dotarem]
incidence of axillary pouch obliteration compared to NEMO-103 [2]: relatively higher incidence | hydrodynamic size [3]: < 1 nm | r1 relaxivity [4]: 4.7 mM⁻¹ s⁻¹
